“Also recorded” adds a separate entry of the source.
Columns and labels:
KDM5B (PHD3) = assay: PHD finger domain microarray; type: binding, human
From the text: (§1) To define the histone binding preferences of the PHD finger proteome, we expressed and purified 123 annotated human PHD-containing domains as GST-tagged recombinant fusions from E. coli. The recombinant proteins consisted of either PHD fingers in isolation, or as tandem domains if a given PHD finger was located adjacent to another reader domain (e.g., one or more PHD fingers, Tudor, chromo and/or bromodomains) (Additional file 1: Table S1). These GST fusions were printed in duplicate on nitrocellulose-coated microarray slides and probed with biotinylated peptides that represented the N-termini of H3, H4, H2A or H2B (Fig. 1a and Additional file 2: Figure S1). As the majority of PHD readers thus far characterized are H3K4me0/3 readers, we included additional peptides (H3K4 as either mono-, di-, or trimethylated) to further determine any H3K4 methyl preference (Additional file 2: Figure S2 and Fig. 1b). As a control, we also probed these microarrays with an α-Tubulin peptide (a.a. 30–50) that would not be predicted to interact with PHD fingers (Additional file 2: Figure S1). […] We also cannot exclude the possibility that some PHD fingers might not be functionally active on the microarrays (perhaps due to misfolding or the lack of an important adjacent region).
(§2) The protein domain microarray was designed to include 123 GST-tagged PHD-domain containing recombinant proteins. Protein domain microarray development and probing was as previously. Briefly, recombinant proteins were synthesized and cloned into pGEX-4T-1 vector by Biomatik Corporation. These GST-PHD readers were subsequently expressed, purified, and spotted in duplicate onto nitrocellulose-coated glass slides (Oncyte Avid slides, Grace Bio-Labs) using a pin arrayer (Aushon 2470, Aushon). For probing, microarray slides were blocked with 3% milk, 3% bovine serum albumin, 0.1% Tween 20 in PBS. Biotinylated peptides were pre-labeled with streptavidin-Cy3 fluorophore (GE Healthcare) and incubated with the blocked array slides. Slides were then washed with PBST and allowed to air dry. Fluorescent interactions were visualized using a GenePix 4200A Microarray Scanner (Molecular Devices).

[1] = test system: 123 annotated human PHD-containing domains; assay: PHD finger domain microarray probed with biotinylated peptides (all domains); type: binding; conditions: for number of H3-interacting domains with preference for this state: out of 31 H3-binding domains; for binding on domain microarray: GST-PHD readers in duplicate on nitrocellulose slides, biotinylated peptide pre-labeled with streptavidin-Cy3
From the text: as §1, §2

TRIM66 (PB) [2] = assay: Histone peptide microarray; type: binding, human; conditions: GST-tagged TRIM66 (PB = PHD + Bromodomain), sheet Array Heatmap, each array performed twice, total n = 4
Procedure, shortened: (§3)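 GST-tagged PHD finger readers were expressed, purified and applied at 0.5 μM to a microarray of 293 synthetic histone peptides carrying single or combinatorial PTMs, using an optimized protocol. Binding signals are averages with standard deviation from 4 replicates.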

ING2 = assay: Histone peptide microarray; type: binding, human; conditions: GST-tagged ING2, sheet Array Heatmap, each array performed twice, total n = 4
Procedure, shortened: as §3

PHRF1 (RP) = assay: Histone peptide microarray; type: binding, human; conditions: for Array Heatmap signal (histone peptide microarray): GST-tagged PHRF1 (RP), sheet Array Heatmap, each array performed twice, total n = 4
Procedure, shortened: as §3

KDM5A (1) = assay: Histone peptide microarray; type: binding, human; conditions: GST-tagged KDM5A (1), sheet Array Heatmap, each array performed twice, total n = 4
Procedure, shortened: as §3

MLL5 = assay: Histone peptide microarray; type: binding, human; conditions: for Array Heatmap signal (histone peptide microarray): GST-tagged MLL5, sheet Array Heatmap, each array performed twice, total n = 4
Procedure, shortened: as §3

TRIM66 (PB) [3] = assay: dCypher AlphaScreen Phase B (full peptide screen); type: binding, human; conditions: reader 7 nM, 100 nM peptide, 23 °C
Method: (§4) X-axes are log(protein concentration (M)) at constant peptide concentration (100 nM); Y-axes are AlphaScreen counts, representing relative strength of binding (n = 2; error bars are S.D.). i Heat map represents relative binding to H3 N-terminal peptides (left) by PHD-containing GST-tagged proteins (top) using the dCypher AlphaScreen platform. Protein concentrations can be found in Additional file 5: Table S4. Binding strength is indicated by color gradient from green to yellow (stronger to weaker). […] Alpha counts (n = 2) were normalized individually for each protein to the highest signal for each respective assay. For full dCypher peptide screen data, see Additional file 4: Table S3
(§5) Once the optimal protein concentration ranges for each of the eight readers were determined, we conducted the full dCypher peptide screen (293 histone peptides) (Fig. 3i; Additional file 4: Table S3).
(§6) The dCypher peptide screen assay was performed as previously described. Briefly, 5 μL of GST-tagged reader domains (optimal protein concentration for library screening determined by initial binding curves to candidate peptides) were incubated with 5 μL of 400 nM (100 nM Final) biotinylated histone peptides (EpiCypher) for 30 min at 23 °C in 1× AlphaLISA Epigenetics buffer + epigenetics buffer supplement (PerkinElmer, AL1008) in a 384-well plate. A 10 μL mix of 5 µg/mL (2.5 μg/mL final) glutathione Acceptor beads (PerkinElmer, AL109M) and 10 μg/mL (5 μg/mL final) streptavidin Donor beads (PerkinElmer, 6760002) was prepared in 1× [Epigenetics buffer + supplement] and added to each well. Plates were incubated at 23 °C in subdued lighting for 60 min and AlphaLISA signal measured on a PerkinElmer 2104 EnVision (680 nm laser excitation, 570 nm emission filter ± 50 nm bandwidth).
(§7) Supplementary file 13072_2020_328_MOESM4_ESM.xlsx: Additional file 4: Table S3. dCypher Results. Excel Tab Peptide Phase A is a compiled set of binding data: chromatin reader titration vs. several peptide targets. Data is presented as raw Alpha counts in duplicates at each concentration tested. Excel Tab Peptide Phase B is a compiled set of binding data: chromatin reader at optimized concentrations vs. entire 293 peptide library. Data is presented as the average and standard deviation of duplicates. […] Key: red = strong binding; blue = weak/no binding.

CHD5 (PPCC) = assay: dCypher AlphaScreen Phase B (full peptide screen); type: binding, human; conditions: reader 5.2 nM, 100 nM peptide, 23 °C, n = 2
Method: as §4, §5, §6, §7

Substance	Array Heatmap signal (histone peptide microarray) (TRIM66 (PB) [2])	Array Heatmap signal (histone peptide microarray) (ING2)	Array Heatmap signal (histone peptide microarray) (PHRF1 (RP))	Array Heatmap signal (histone peptide microarray) (KDM5A (1))	Array Heatmap signal (histone peptide microarray) (MLL5)	binding (CHD5 (PPCC))	binding on domain microarray [1]	further results
H3 (1-20): unmodified H3 N-terminal peptide (1–20)	0.7114	0.5908	0.67	0.4331	0.5452	preference for H3K4me0/1	–	binding preference (KDM5B (PHD3)): no preference; number of PHD-containing fusions with positive binding ([1]; of 123 PHD-containing fusions): 31; number of H3-interacting domains with preference for this state [1]: 10; binding preference (PHRF1 (RP); peptide microarray, reader 0.5 μM, n = 4, listed as H3K4me0): strong preference for H3K4me0; also recorded: specifically bound H3K4me0 over K4me; binding (TRIM66 (PB) [3]; n = 2, listed as H3K4me0): preference for H3K4me0 and me1; also recorded: robust readers of H3K4me0 peptides
H3K4me1: H3 1-20 [Peptide H3K4me1]	0.6245	0.606	0.6701	0.4924	0.5428	preference for H3K4me0/1	did not detect H3K4me1 to the same degree	binding (TRIM66 (PB) [3]; n = 2): preference for H3K4me0 and me1
H3K4me2: H3 1-20 [Peptide H3K4me2]	0.6781	0.6539	0.5228	0.5028	0.5972	–	largely recognized equivalently	–
H3K4me3: H3 1-20 [Peptide H3K4me3]	0.622	0.6884	0.4656	0.4187	0.668	–	largely recognized equivalently	binding preference (KDM5B (PHD3)): consistent with their current classification as H3K4me3 binders; also recorded: no preference; number of H3-interacting domains with preference for this state [1]: 18; binding preference (MLL5; peptide microarray, reader 0.5 μM, n = 4): strong preference for H3K4me3 over the un-, mono-, or di-methylated H3K4 peptides; also recorded: specific reader for H3K4me3
H3K9ac: H3 1-20 [Peptide H3K9ac]	–	–	–	–	–	–	–	Array Heatmap signal (histone peptide microarray) (TRIM66 (PB) [2]; listed as 2): 0.8314; Array Heatmap signal (histone peptide microarray) (TRIM66 (PB) [2]; listed as 3): 0.731; Array Heatmap signal (histone peptide microarray) (ING2; listed as 2): 0.6059; Array Heatmap signal (histone peptide microarray) (ING2; listed as 3): 0.6036; Array Heatmap signal (histone peptide microarray) (PHRF1 (RP); listed as 2): 0.9096; Array Heatmap signal (histone peptide microarray) (PHRF1 (RP); listed as 3): 0.8949; Array Heatmap signal (histone peptide microarray) (KDM5A (1); listed as 2): 0.4743; Array Heatmap signal (histone peptide microarray) (KDM5A (1); listed as 3): 0.4479; Array Heatmap signal (histone peptide microarray) (MLL5; listed as 2): 0.5361; Array Heatmap signal (histone peptide microarray) (MLL5; listed as 3): 0.5261
H3K9me3: H3 1-20 [Peptide H3K9me3]	0.7052	0.5901	0.7596	0.4576	0.5674	ability to bind to the peptides containing H3K9me3	–	binding (TRIM66 (PB) [3]; n = 2): ability to bind to the peptides containing H3K9me3
H3S10p: H3 1-20 [Peptide H3S10p]	0.7641	0.606	0.5714	0.5146	0.5416	–	–	–
